In US20100136537A1, “PHOTORECEPTOR PRECURSOR CELLS” (THE REGENTS OF THE UNIVERSITY OF MICHIGAN, priority 2006, published 2010):
Blank lines part the entries; values can stand above or below the molecule they belong to.

Key:
mGluR8 = biological target: T1, mGluR8 (Mus musculus, UniProt P47743); assay: Calcium imaging (Fura Red) of whole-mount transplanted retinas, mGluR8 stimulation; assay type: cell-based; settings: for changes in intracellular calcium ([Ca2+]i) on agonist application: recipient and Nrl.gfp-positive integrated rod cells, DCPG 20 μM in bath
T1 construct: from tissue; host or cells: whole-mount mouse neural retina; integrated Nrl.gfp-positive donor rods and recipient photoreceptors
T1 sequence (P47743 34-908): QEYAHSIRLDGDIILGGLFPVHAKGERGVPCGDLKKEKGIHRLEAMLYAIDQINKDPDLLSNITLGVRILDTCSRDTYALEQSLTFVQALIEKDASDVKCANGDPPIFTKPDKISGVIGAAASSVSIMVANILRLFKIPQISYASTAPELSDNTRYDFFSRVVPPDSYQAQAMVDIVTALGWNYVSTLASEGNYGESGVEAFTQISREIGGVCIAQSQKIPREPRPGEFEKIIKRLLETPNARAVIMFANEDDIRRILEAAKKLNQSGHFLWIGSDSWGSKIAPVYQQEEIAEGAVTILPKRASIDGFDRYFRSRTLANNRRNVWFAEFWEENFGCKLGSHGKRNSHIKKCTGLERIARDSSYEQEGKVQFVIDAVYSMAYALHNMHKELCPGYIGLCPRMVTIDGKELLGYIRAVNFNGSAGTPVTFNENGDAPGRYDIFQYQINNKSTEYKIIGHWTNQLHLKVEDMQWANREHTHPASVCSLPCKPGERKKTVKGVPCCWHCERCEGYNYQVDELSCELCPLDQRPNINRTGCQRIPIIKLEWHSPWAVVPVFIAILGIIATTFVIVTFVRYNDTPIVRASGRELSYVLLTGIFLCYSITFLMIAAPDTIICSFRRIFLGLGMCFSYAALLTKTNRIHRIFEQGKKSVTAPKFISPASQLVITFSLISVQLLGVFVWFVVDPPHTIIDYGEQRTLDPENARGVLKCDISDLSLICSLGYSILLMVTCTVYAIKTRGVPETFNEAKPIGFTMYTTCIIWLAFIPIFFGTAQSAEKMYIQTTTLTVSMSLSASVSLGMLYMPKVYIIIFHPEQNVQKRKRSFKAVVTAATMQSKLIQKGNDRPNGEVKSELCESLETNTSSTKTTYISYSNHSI
Procedure: (§1) Calcium Imaging. Retinas transplanted with Nrl.gfp^+/+ P1 cells were dissected free of all surrounding tissue. Whole-mount neural retinas were loaded with Fura Red-AM (15 μM, Molecular Probes) and the dispersant Cremophor-EL (0.03%, Sigma) for 1.5 hrs at 36° C. and then de-esterified in fresh DMEM-F12 (without phenol red) for 30 mins at 36° C. Retinas were transferred to the stage of an inverted microscope (SP2, Leica, UK) and held flat under a nylon-strung platinum wire ‘harp’. XY images were taken through the cell bodies in the inner region of the ONL, nearest the outer plexiform layer, where rod (as opposed to cone, which lie at the outer edge of the ONL) photoreceptor nuclei reside. Images were acquired at 3 sec intervals and analysed off-line. Cells were selected at random and the mean fluorescence of individual cells was calculated and normalised against the fluorescence at time 0s. Drugs were applied by micro-pipette injection into the bathing solution.
(§2) Drugs. DCPG ((S)-3,4-dicarboxyphenylglycine) (20 μM; final concentration in bath), CPPG ((RS)-alpha-cyclopropyl-4-phosphonophenylglycine) (100 μM) and NMDA (N-methyl-D-aspartate) (200 μM) were supplied by Tocris (UK).

NMDA receptor = assay: Calcium imaging (Fura Red) of whole-mount transplanted retinas, NMDA receptor agonist; assay type: cell-based, mouse; settings: NMDA 200 μM; photoreceptors
Procedure: as §1, §2

NRL = NRL expression in serum-starved Y79 cells (immunoblot, Northern blot); assay type: cell-based, human; settings: for NRL expression (immunoblot): 24 h incubation
Procedure: Cell Culture. Y79 human retinoblastoma cells (ATCC HTB 18) and HEK293 (ATCC CRL-1573) were maintained in RPMI 1640 and Dulbecco's modified Eagle's medium, respectively, under standard conditions with 15% (v/v) fetal bovine serum (FBS), penicillin G (100 units/ml), and streptomycin (100 μg/ml) at 37° C. and 5% CO2. For serum starvation and RA treatment experiments, Y79 cells (5×10^4) were cultured in the presence or absence of the serum (same batch of serum was used in all the experiments), at RA, 9-cis-RA, cycloheximide (CHX), and 4-(E-2-(5,6,7,8-tetrahydro-5,5,8,8-tetramethyl-2-naphthalenl)-1-propenyl) benzoic acid (TTNPB) at indicated concentrations. Me2SO or ethanol was added to Y79 cells in lieu of the soluble factors as negative control.
For protein synthesis inhibition experiments, Y79 cells were serum-starved for 24 h, and then simultaneously treated with RA and CHX for 8 or 24 h. NRL expression was analyzed by immunoblotting. In another set of experiments, serum-starved Y79 cells were first incubated with RA alone for 8 or 24 h and then CHX was added. Cell extracts were then analyzed 24 h later for examining NRL expression by immunoblotting.
Protein Expression Analysis.

[1] = biological target: ΔCEP290 (truncated CEP290 of the rd16 mouse, in-frame deletion of amino acid residues 1599-1897) (mouse) (UniProt Q6A078); assay: co-immunoprecipitation with ORF15^CP antibody from rd16 vs WT retinal extract, immunoblot for CEP290
[2] = biological target: T2, CEP290 (wild-type mouse centrosomal protein CEP290, endogenous, retina) (mouse, UniProt Q6A078 1-2472); assay: co-immunoprecipitation from retinal extracts, immunoblot
T2 construct: range 1-2472; Endogenous protein in retinal extracts; alternatively spliced lower-mass isoforms are also mentioned; also called WT protein; full-length CEP290
T2 sequence (Q6A078 whole entry, canonical isoform): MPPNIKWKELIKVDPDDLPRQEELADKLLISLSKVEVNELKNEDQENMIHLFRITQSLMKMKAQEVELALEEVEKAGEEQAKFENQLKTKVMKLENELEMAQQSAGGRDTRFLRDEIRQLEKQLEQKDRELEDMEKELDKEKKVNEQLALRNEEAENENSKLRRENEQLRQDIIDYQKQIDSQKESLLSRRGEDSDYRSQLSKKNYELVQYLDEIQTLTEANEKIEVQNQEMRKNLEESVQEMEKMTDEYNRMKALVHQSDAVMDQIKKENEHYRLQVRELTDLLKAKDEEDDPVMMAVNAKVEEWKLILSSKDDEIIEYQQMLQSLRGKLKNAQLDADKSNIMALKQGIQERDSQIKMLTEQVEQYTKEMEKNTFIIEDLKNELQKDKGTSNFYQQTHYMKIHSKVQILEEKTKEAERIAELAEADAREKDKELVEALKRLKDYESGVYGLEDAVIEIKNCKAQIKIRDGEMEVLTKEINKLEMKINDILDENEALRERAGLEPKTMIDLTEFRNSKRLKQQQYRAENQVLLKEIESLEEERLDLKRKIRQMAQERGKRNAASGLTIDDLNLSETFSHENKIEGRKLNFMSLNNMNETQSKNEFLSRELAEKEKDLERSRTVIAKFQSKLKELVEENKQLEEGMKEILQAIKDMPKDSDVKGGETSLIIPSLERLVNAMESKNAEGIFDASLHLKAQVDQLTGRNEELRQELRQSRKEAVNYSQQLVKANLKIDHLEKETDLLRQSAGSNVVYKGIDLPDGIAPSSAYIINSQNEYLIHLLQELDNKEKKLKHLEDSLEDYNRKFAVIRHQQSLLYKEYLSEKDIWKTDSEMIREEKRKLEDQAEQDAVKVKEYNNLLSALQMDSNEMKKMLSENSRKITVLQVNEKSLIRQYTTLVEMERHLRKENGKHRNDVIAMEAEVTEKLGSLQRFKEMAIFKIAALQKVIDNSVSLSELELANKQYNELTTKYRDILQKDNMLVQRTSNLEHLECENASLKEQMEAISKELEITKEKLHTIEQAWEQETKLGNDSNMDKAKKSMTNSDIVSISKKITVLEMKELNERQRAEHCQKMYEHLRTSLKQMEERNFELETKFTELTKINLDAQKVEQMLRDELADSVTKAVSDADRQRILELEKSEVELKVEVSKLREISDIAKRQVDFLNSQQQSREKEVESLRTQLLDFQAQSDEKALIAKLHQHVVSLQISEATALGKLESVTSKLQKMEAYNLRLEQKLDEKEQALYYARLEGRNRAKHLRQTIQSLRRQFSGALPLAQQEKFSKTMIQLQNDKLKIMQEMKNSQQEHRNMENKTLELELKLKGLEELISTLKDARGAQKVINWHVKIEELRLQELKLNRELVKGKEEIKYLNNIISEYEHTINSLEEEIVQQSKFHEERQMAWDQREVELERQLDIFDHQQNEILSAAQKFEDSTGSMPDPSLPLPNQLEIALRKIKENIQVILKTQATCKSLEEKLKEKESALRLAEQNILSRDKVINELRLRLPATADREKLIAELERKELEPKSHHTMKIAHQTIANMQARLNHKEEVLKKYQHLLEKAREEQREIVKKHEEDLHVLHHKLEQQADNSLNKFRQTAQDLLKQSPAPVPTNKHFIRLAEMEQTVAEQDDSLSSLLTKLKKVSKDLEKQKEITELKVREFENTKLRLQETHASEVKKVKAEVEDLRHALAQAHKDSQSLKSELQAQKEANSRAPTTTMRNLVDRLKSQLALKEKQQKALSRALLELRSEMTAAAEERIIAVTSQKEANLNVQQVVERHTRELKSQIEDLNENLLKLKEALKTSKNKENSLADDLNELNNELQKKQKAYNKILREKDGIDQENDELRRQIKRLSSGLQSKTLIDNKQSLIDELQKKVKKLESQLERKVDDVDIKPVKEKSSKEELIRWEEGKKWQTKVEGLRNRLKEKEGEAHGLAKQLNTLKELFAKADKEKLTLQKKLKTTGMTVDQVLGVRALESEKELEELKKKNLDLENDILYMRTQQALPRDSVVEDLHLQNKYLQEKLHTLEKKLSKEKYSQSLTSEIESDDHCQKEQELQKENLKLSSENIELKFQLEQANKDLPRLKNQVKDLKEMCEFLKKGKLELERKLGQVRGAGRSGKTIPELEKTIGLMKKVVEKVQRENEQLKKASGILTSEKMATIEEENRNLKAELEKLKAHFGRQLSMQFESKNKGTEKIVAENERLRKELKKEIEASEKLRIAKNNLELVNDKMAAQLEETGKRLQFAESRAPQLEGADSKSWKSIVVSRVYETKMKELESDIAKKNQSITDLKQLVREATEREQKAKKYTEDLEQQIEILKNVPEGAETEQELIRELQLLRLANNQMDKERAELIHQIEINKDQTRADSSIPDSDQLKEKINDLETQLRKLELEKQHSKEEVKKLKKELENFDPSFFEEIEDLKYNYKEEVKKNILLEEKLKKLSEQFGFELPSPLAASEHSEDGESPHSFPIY

Molecule: N[C@@H](CCC(=O)O)C(=O)O [glutamate]
changes in intracellular calcium ([Ca2+]i) on agonist application (mGluR8): consistently evoked changes in ([Ca^2+]i)

Molecule: CN[C@H](CC(=O)O)C(=O)O [NMDA, N-methyl-D-aspartate]
effect of NMDA receptor agonist on [Ca2+]i (NMDA receptor): showed no effect

Molecule: N[C@H](C(=O)O)c1ccc(C(=O)O)c(C(=O)O)c1 [DCPG, (S)-3,4-dicarboxyphenylglycine]
changes in intracellular calcium ([Ca2+]i) on agonist application (mGluR8): consistently evoked changes in ([Ca^2+]i)

Molecule: CC1=C(/C=C/C(C)=C\C=C\C(C)=C\C(=O)O)C(C)(C)CCC1 [9-cis RA, 9-cis-RA]
NRL expression (immunoblot) (NRL; serum-starved Y79 cells): dose-dependent increase in NRL expression

block of the mGluR8 agonist-evoked [Ca2+]i change (mGluR8; CPPG 100 μM): can be blocked
Molecule: NC(C(=O)O)(c1ccc(P(=O)(O)O)cc1)C1CC1 (racemic) [CPPG, (RS)-alpha-cyclopropyl-4-phosphonophenylglycine]

Molecule: C[C@@H]1C[C@@H]([C@H](O)CC2CC(=O)NC(=O)C2)C(=O)[C@@H](C)C1 [CHX, cycloheximide]
effect on RA-mediated NRL induction, added simultaneously with RA (NRL; CHX 20 μg/ml with at RA, serum-starved Y79 cells): blocked NRL induction
effect on NRL expression, added after RA pretreatment (NRL; cells pretreated with RA for 8 or 24 h, then CHX): no detectable effect on NRL expression

Molecule: C/C(=C\c1ccc(C(=O)O)cc1)c1ccc2c(c1)C(C)(C)CCC2(C)C [TTNPB, 4-(E-2-(5,6,7,8-tetrahydro-5,5,8,8-tetramethyl-2-naphthalenl)-1-propenyl) benzoic acid]
NRL expression (immunoblot) (NRL; serum-starved Y79 cells): mimicked

fold higher level co-immunoprecipitated compared with the WT protein [1]: 50 times
B1: RPGR-ORF15 (retina-enriched RPGR-ORF15 isoform(s)) (protein, mouse, UniProt Q9R0X5-5 1-1305, looked up)
chain: MAESESLVPDTGAVFTFGKTKFAENIPSKFWFKNDIPICLSCGDEHTAIVTGNNKLYMFGSNNWGQLGLGSKAAIIKPTCIKALKPEKVKLAACGRNHTLVSTDTGGVYAAGGNNEGQLGLGDTDDRDTFHQIVFFTPADTIKQLSAGANTSAALTEDGKLFMWGDNSEGQIGLEDKSNVCIPHEVTVGKPISWISCGYYHSAFVTMDGELYTFGEPENGKLGLPNELLMNHRSPQRVLGIPERVIQVACGGGHTVVLTEKVVYAFGLGQFGQLGLGTFLFETSEPKIIERIKDQKICHISCGENHTALMTELGLLYTFGDGRHGKLGLGMENFTNQFFPTLCSNFLRFAVQLIACGGCHMLVFATPRLGTIDEPKFEDVYEPYISTGSFSINDLSPRSSLNRSLSARLRRRERERPPCSASMVGTLPPLEGTSASTSAYFYPSSPPFHLSVNNYPEKSPSESMEPLDSDYFEDKMNKDTETENSSAVDSENFGETNDILNMTHMMTTSSNEKLLDFSPIQKQQNQDTFEKVMESTPCTENEDSYEYEEMSKIKEVTVYKQYLAKGIYMIRPAEILEAFSDEEVGNGLDQVEEPRVFTDGKGLQSKQVGKESDEEIVSEKKTEVMEVADVKKIRESEENSKSDSLFDDLPDKTMNSESEDNKDIAEERRSSEQNMTFDSETELVEEPDSYMECERHSEQDSAEELEQPKLVEYSSEEKDEKDEKDDDEVETENLWYDRNCTEQETENVFRATRFFPKFDLKHDHLSGIPEEQEGPEDSEGNVVVEQVVQAQKENLEFEGDRKEAKAEAPSDVITEKEVSESERESGGEREDRSEGDGDQICEKVSLETEHLQRAQGKQERKKGKDKRARCILDMKEREEDKGWEKGSEGGDKMKRDEGNQEKRKKEMEERDAGDERSEEEEGEEEEPEEGEKEEGGEEEEGTSEDQSREDEGDRQEKEGRREGKGRQEDGREGWKEGEEQEQEEEIEEGEEEEREGEEEGGEEEGEGEGEREEEGEGEEEGEGEEEGEGEEEGEGEEEGEGEEEGEGEEEGEGEEEGEGEEDGEGEEDGEGEEEGEGEEEGEREEDGEGEEDGEGEEEGEGEEEGEGEEEGEGEEEGEGEGEEEGEGEWEGEEEGEGEEEGEGEEEGEGEEEGEGEEEGEGEEEGGEDDEGEELEKKKGDITEEEEEEEEGQEGDEREREEHGSCEDDVEEDKTYDREEGEYKKAIGKVADNESQEDRKQSPKVSKINGSMKYGRHGTYSEKPITNLGKTQPSKMPMESRQLVENGLLGSERFWSDVLPLYLELK

binding result [2]: no binding
B2: nucleophosmin (NPM) (other, mouse, UniProt Q61937 1-292, looked up)
chain: MEDSMDMDMSPLRPQNYLFGCELKADKDYHFKVDNDENEHQLSLRTVSLGAGAKDELHIVEAEAMNYEGSPIKVTLATLKMSVQPTVSLGGFEITPPVVLRLKCGSGPVHISGQHLVAVEEDAESEDEDEEDVKLLGMSGKRSAPGGGNKVPQKKVKLDEDDEDDDEDDEDDEDDDDDDFDEEETEEKVPVKKSVRDTPAKNAQKSNQNGKDLKPSTPRSKGQESFKKQEKTPKTPKGPSSVEDIKAKMQASIEKGGSLPKVEAKFINYVKNCFRMTDQEAIQDLWQWRKSL

binding result [2]: no binding
B3: Nephrocystin-5 (NPHP5) (other, mouse, UniProt Q8BP00 1-598, looked up)
chain: MKPAGTDPRILSLAAEVAKSPEQNVPVILLKLKEIINNTPLGSSELKKVKQDIYCYDLIQYCLLVLSQDSSRIQGGWSTISQLTQILSHCCVGLEPGEDGEEFYKELLPSAAENFLILGRRLQTCFINATKGEEQDKLLHFFQIVTDSLFWLLGGHVQLIQNVLQSDHFLHLLQTDNVQIGASVMTLLQNILQINSGNLLKIEGKALHSILDEILFKLLSTPSPVIRSTATKLLLVLAESHQEILILLRLSACYKGLRSLLNKQETLTEFSRELRQLVDLLTPKIHQEVEEQKLHKAACLIQAYWKGFQTRKRLKKLPSAVIALQRSFRSKRTKMMLELNRQKEEEDLRLKLQLQRQRAMRLSRESRLNMLEIIHPGQVEKYNREMEEKSALTIQKHWRGYRERKNFRQQRPSLTEYKAAVTLQRAVLKFLAKCRKKKKLFASWHGLQELTDARRVELKQQVDDYVKRHPCSQMSEAASRELHAQAQERLQHYFMGRAIEERAQQHREALMAQISTNIEQLMKAPSLKEAEGKEPEQFLSRSRPVAAKAKQAHLTTLKHIQAPWWKKLGEEPGDEVDVPKDELSIDLGMLFIGGTKPP
